Data: PubChem BioAssay (NCI)
Where “and” joins values, the source holds several entries; their conditions need not be identical. Identical values can stand only once.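 The compound was tested at five concentrations on cells cultured in 96-well plates, with a 48-hour exposure period. Abbreviation: GI50, concentration required for 50% inhibition of growth. TGI: total growth inhibition.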

What was measured:
Test in all cases: NCI-60 cell line screen, 48 h
[1] = tested on: UACC-62 melanoma
[2] = tested on: HCT-15 colon
[3] = tested on: OVCAR-3 ovarian
[4] = tested on: HCT-116 colon
[5] = tested on: RXF 393 renal
[6] = tested on: MALME-3M melanoma
[7] = tested on: MOLT-4 leukemia
[8] = tested on: TK-10 renal
[9] = tested on: LXFL 529 NSCLC
[10] = tested on: M19-MEL melanoma

| SMILES | GI50 [1] [µM] | TGI [1] | GI50 [2] | TGI [2] | GI50 [3] | TGI [3] | GI50 [4] | TGI [4] | GI50 [5] [µM] | TGI [5] | GI50 [6] | TGI [6] | GI50 [7] [µM] | TGI [7] | GI50 [8] | TGI [8] | TGI [9] [µM] | TGI [10] [µM] |
| --- | --- | --- | --- | --- | --- | --- | --- | --- | --- | --- | --- | --- | --- | --- | --- | --- | --- | --- |
| Cc1cc2c(cc1Cl)SC(N(N(C)C)S(=O)(=O)c1ccc(Cl)cc1)=NS2(=O)=O | 22 | 56.1 µM | 25.9 µM | > 100 µM | 24 µM | 61.6 µM | 23.6 µM | 71.1 µM | 31.3 | > 100 µM | 22 µM | 62 µM | 35 | > 100 µM | 43.9 µM | > 100 µM |  |  |
| CCN1c2ccccc2C(C(SC)S(=O)(=O)c2ccc(C)cc2)c2c1[nH]c(=O)n(C)c2=O (stereo unspecified) |  | > 100 µM |  | > 100 µM |  | > 100 µM |  | > 100 µM |  |  |  | > 100 µM |  | > 100 µM |  | > 100 µM | > 100 | > 100 |
| CN(C)CCSC1=Nc2ccc(Cl)cc2C(c2ccccc2Cl)=NC1 |  | 19.1 µM and > 100 µM | 12 µM and 37.8 µM | 25.2 µM and > 100 µM | 17.3 µM and > 100 µM | 31.8 µM and > 100 µM | 13.8 µM and 58.4 µM | 31.1 µM and > 100 µM |  | 15.9 µM and > 100 µM | 13.5 µM and > 100 µM | 28.3 µM and > 100 µM |  | > 100 µM and 94.3 µM | 17.5 µM and 63.4 µM | 33.1 µM and > 100 µM |  |  |
| Cn1cnc([N+](=O)[O-])c1Sc1nc2ccccc2[nH]1 |  |  |  | 33.1 µM |  | > 100 µM |  | 30.1 µM |  | 25.3 µM |  | 35 µM |  | 29.9 µM |  | 40.8 µM | 20.1 | 29.7 |
| COc1ccc(-c2nnc(COc3ccc(NC(=O)Nc4cc(C(F)(F)F)cc(C(F)(F)F)c4)cc3F)o2)cc1 | 2.11 | 7.13 µM | 2.01 µM | 6.06 µM | 1.5 µM | 4.66 µM | 1.63 µM | 3.98 µM | 1.96 | 6.06 µM | 1.85 µM | 4.77 µM | 2.68 | 14.1 µM | 3.49 µM | 12.4 µM |  |  |
| CCN(CC)c1ccc(-c2cc(-c3cc(OC)c(OC)c(OC)c3)nc(N3CCOCC3)c2C#N)cc1 | 0.379 | 2.55 µM | 0.584 µM | > 66.6 µM | 3.19 µM | 20.9 µM | 0.457 µM | 21.1 µM | 1.01 | 21 µM | 2.28 µM | > 29.9 µM | 2.45 | > 100 µM | 15.3 µM | > 100 µM |  |  |
| Fc1cc2[nH]ncc2c2c3c(c(-c4cn[nH]c4)nc12)CCCC3 | 0.632 | 2.31 µM | 0.56 µM | > 61.5 µM | 1.53 µM | 6.91 µM | 0.498 µM | > 37.5 µM | 0.275 | 1.27 µM | 0.953 µM | 3.16 µM | 1.72 | 6.15 µM | 1.21 µM | > 27.8 µM |  |  |
| CN1CCN(CCCn2c(=O)c3sc4ncccc4c3n3nnc(-c4ccccc4)c23)CC1 | 8.85 | 16.1 µM | 6.19 µM | 13.2 µM | 2.3 µM | 7.58 µM | 5.23 µM | 11.7 µM | 6.36 | 13.4 µM | 9.41 µM | 17.9 µM | 1.55 | 4.95 µM | 6.92 µM | 13.6 µM |  |  |
| Cc1cc(-c2ccc3nc(C4CCOCC4)n(CCOC(F)(F)F)c3c2)cn(C)c1=O |  | 2.06 µM |  | 4.23 µM |  | 3.94 µM |  | 14.8 µM | 0.885 | 6.34 µM |  | 5.16 µM | 0.588 | 17.5 µM |  | 4.64 µM |  |  |
| COc1ccc(-c2nnc(COc3ccc(C(=O)/C=C/c4ccco4)cc3)o2)cc1 | 3.14 | 11.2 µM | 1.8 µM | 4.25 µM | 1.95 µM | 3.95 µM | 1.82 µM | 3.36 µM | 1.87 | 3.62 µM | 2.82 µM | 7.43 µM | 2.89 | 9.05 µM | 2.81 µM | 6.25 µM |  |  |
| C[C@@H]1CCC2[C@@H](C)[C@@H](OCC(CO[C@H]3OC4O[C@@]5(C)CC[C@H]6[C@H](C)CCC([C@H]3C)[C@@]46OO5)OC(=O)CCC(=O)O)OC3O[C@@]4(C)CC[C@@H]1[C@]32OO4 (stereo partly specified) | 0.0765 | 21.2 µM | < 0.01 µM | 12.8 µM | 0.02 µM | 15.8 µM | < 0.01 µM | 14.6 µM | < 0.01 | 0.205 µM | < 0.01 µM | 12.4 µM | 0.537 | > 48.7 µM | < 0.046 µM | 29.5 µM |  |  |
| CN(C)c1ccc(/C=C(\NC(=O)c2ccccc2)c2nc3ncncc3[nH]2)cc1 |  | > 100 µM |  | > 100 µM |  | > 100 µM |  |  |  | > 100 µM |  | > 100 µM |  | > 100 µM |  | > 100 µM | > 100 | > 100 |
| CC1=CC(O)(c2ccc(-c3ccccc3Cl)cc2)OC1=O (stereo unspecified) |  | > 100 µM |  | > 100 µM |  | > 100 µM |  |  |  | > 100 µM |  | > 100 µM |  | > 100 µM |  | > 100 µM | > 100 | > 100 |
| O=c1c2sccc2n(CC2COc3ccccc3O2)c(=O)n1O (stereo unspecified) | 14.6 | 46.4 µM | 4.53 µM | > 100 µM | 10.4 µM | 44.9 µM | 6.54 µM | 29.2 µM | 3 | 9.7 µM | 20 µM | 81.5 µM | 21.3 | > 100 µM | 30.9 µM | > 100 µM |  |  |
| CC[C@H](Nc1ncnc2nc[nH]c12)c1oc2ccccc2c(=O)c1-c1cccc(F)c1 | 10.5 | 69 µM | 26.9 µM | > 100 µM | 18.3 µM | > 100 µM | 25.5 µM | > 100 µM | 13.2 | 78.2 µM | 25.1 µM | > 100 µM | 13.1 | 49.1 µM | 19.5 µM | 95.6 µM |  |  |
| N=Nc1c(OC(=O)Nc2cccc(Cl)c2)[nH]c2ccccc12 |  | 21.1 µM |  | 18.9 µM |  | 6.6 µM |  | 14.1 µM |  | 26.1 µM |  | 26.5 µM |  | 25.8 µM |  | 24.6 µM |  |  |
